Columns and labels:
[1] = system: Arabidopsis thaliana plants; experiment: SOA1 phenotypic analysis of herbicide-treated Arabidopsis plants; format: in vivo
Magnaporthe grisea = format: cell-based
Arabidopsis thaliana [2] = experiment: MOA1 gene expression profiling (22,000 gene array) of sprayed Arabidopsis; settings: regulated genes (1 hr) found in list of genes essential for plant growth and development
Arabidopsis thaliana [3] = experiment: MOA1 biochemical (metabolite) profiling by LC-MS and GC-MS of sprayed Arabidopsis; settings: for Number of Metabolites Changed: (unknown #) / Number of Metabolites Changed: Total #: 1 hr
[4] = system: Saccharomyces cerevisiae wild type strain BY4743; experiment: AF1 metabolite analysis (GC-MS, LC-MS) of yeast treated with antifungal drugs; format: cell-based
[5] = system: Saccharomyces cerevisiae wild type strain BY4743; experiment: AF1 combined gene expression and metabolite data mapped to KEGG reactions and pathways; format: cell-based
Description: In AF1, two different technologies were utilized: gene expression analysis (for examination of mRNA expression) and metabolite analysis. […] As noted previously, existing metabolic databases may be helpful in practicing the methods and systems of the present invention, but many databases include limitations that make their use in data analysis and pathway mapping less than straightforward. […] This caveat to KEGG makes it difficult to pinpoint the correct pathway when attempting to link a gene to a specific pathway. […] The pathway score indicates how meaningful the mapping is, or how likely it is to be correctly indicative of the pathway involved in the perturbation under examination. The method provides a pathway score based on perturbation levels of genes and/or compounds and the information content of each gene and/or compound in the pathway, i.e., a pathway score indicates the extent to which other pathways are mapped to a gene/compound. For example, imagine that two genes are perturbed in a particular experiment. One gene maps to only one pathway, giving a high degree of probability that the perturbed pathway is the one identified in the mapping. The second gene maps to three pathways. In the later example, there is only one-third the probability that the pathway identified in the mapping is the one perturbed. The present invention provides a method for calculating the pathway scores, so that more weight is given to a score of a gene or compound that maps to only one pathway than to a score of a gene or compound that maps to multiple pathways. […] Where n=the total number of genes in the pathway; ipath—count=the number of pathways containing a gene; and j=the number of genes in the pathway that are perturbed. Another factor to be considered when weighting a pathway score is the degree of perturbation. Degree of perturbation can be calculated, for example, based on a number of standard deviations from a norm, and included in an equation such as the one shown above, so that not only the number of pathways is taken into account, but also accounts for the amount of gene transcript or compound present as compared to a control. Compounds were also linked to pathways using the KEGG database. […] Of the 676 compounds under consideration, 77 were detected in the AF1 samples. […] The multiple mapping feature of KEGG makes it difficult to pinpoint the correct pathway when trying to link a compound to a specific pathway. […] A pathway score calculation is applied to the compounds to account for both information content (number of pathways a compound maps to) and perturbation level. The data were then combined to determine the number of reactions showing an enzyme and at least one compound perturbed, and to determine the number of pathways having at least one enzyme and one perturbed compound perturbed. The results of the analysis are represented in Tables 16 and 17, and were difficult to interpret, illustrating that the ability to draw conclusions from compound mapping to pathways is limited when absent additional data.

[6] = numeric value standardized to mock treated tissues

SMILES: CP(=O)(O)CCC(N)C(=O)O (centres unmarked) [Glufosinate]
- characteristic symptoms (phenotypic analysis) ([1]; herbicide-treated Arabidopsis): Chlorosis and leaf curling
- leafCurling (Dev.) [1, 6]: 2
- leafTwisting (Dev.) [1, 6]: 1
- leafWidth (Dev.) [1, 6]: −2
- matureLeafAnthocyanins (Dev.) [1, 6]: 0
- matureLeafChlorosis (Dev.) [1, 6]: 3
- matureLeafNecrosis (Dev.) [1, 6]: 0
- newLeafAnthocyanins (Dev.) [1, 6]: 0
- newLeafChlorosis (Dev.) [1, 6]: 3
- newLeafNecrosis (Dev.) [1, 6]: 0
- pointedLeaves (Dev.) [1, 6]: 1
- tMic (Dev.) ([1]; score for time to full symptoms at minimum inhibitory concentration): 1
- Symptom Class ([1]; three-week-old Arabidopsis treated with herbicide, phenotypes shown in FIG. 12): 3
- nitrogen sources M. grisea can utilize in the presence of the compound (Magnaporthe grisea): only able to utilize glutamine and glutamate as nitrogen sources
- No. of Lethal Genes Altered (Arabidopsis thaliana [2]): 10
- Number of Metabolites Changed: (unknown #) (Arabidopsis thaliana [3]; p < 0.05): 4(4)
- Number of Metabolites Changed: Total # (Arabidopsis thaliana [3]; p < 0.05): 4(4)
- Number of Metabolites Changed: (unknown #) (Arabidopsis thaliana [3]; p < 0.11): 9(9)
- Number of Metabolites Changed: Total # (Arabidopsis thaliana [3]; p < 0.11): 9(9)
- commonly regulated (putative stress-related) metabolites (Arabidopsis thaliana [3]; MOA1, 20 minutes and 1 hour after spraying): Only a few, if any, stress-related metabolites were observed

SMILES: CC(=O)N1CCN(c2ccc(OCC3COC(Cn4ccnc4)(c4ccc(Cl)cc4Cl)O3)cc2)CC1 (centres unmarked) [Ketoconazole]
- # Compounds perturbed ([4]; P < 0.1, yeast, 2×MIC, two hours): 15
- Number of Reactions Having an Enzyme and at Least One Compound Perturbed [5]: 21

SMILES: CC[C@@H]([C@H](C)O)n1ncn(-c2ccc(N3CCN(c4ccc(OC[C@@H]5CO[C@@](Cn6cncn6)(c6ccc(F)cc6F)C5)cc4)CC3)cc2)c1=O [Posaconazole]
- Fold Change of ornithine3 ([4]; platform GC, p-Value 0.965157424): 0.041
- Fold Change of phosphoenolpyruvate ([4]; platform LC, p-Value 1): 0
- Fold Change of NacetylDglucosamine ([4]; platform nLC, p-Value 1): 0
- Fold Change of NacetylLornithine ([4]; platform nLC, p-Value 1): 0
- Fold Change of orotic acid ([4]; platform nLC, p-Value 1): 0
- Fold Change of phenylpyruvic acid ([4]; platform nLC, p-Value 1): 0
- Fold Change of phosphoenolpyruvate ([4]; platform nLC, p-Value 1): 0
- Fold Change of pinitol ([4]; platform nLC, p-Value 1): 0
- Fold Change of retinoic acid ([4]; platform nLC, p-Value 1): 0
- Fold Change of salicylic/HObenzoic ([4]; platform nLC, p-Value 1): 0
- Fold Change of shikimic acid ([4]; platform nLC, p-Value 1): 0
- Fold Change of sinapinic acid ([4]; platform nLC, p-Value 1): 0
- Fold Change of thymine ([4]; platform nLC, p-Value 1): 0
- Fold Change of urocanic acid ([4]; platform nLC, p-Value 1): 0
- Fold Change of xanthosineDiH2O ([4]; platform nLC, p-Value 1): 0
- Fold Change of zeatin ([4]; platform nLC, p-Value 1): 0
- Fold Change of NacetylLglucosamine ([4]; platform pLC, p-Value 1): 0
- Fold Change of NacetylLglutamate ([4]; platform pLC, p-Value 1): 0
- Fold Change of niacinamide ([4]; platform pLC, p-Value 1): 0
- Fold Change of nopaline ([4]; platform pLC, p-Value 1): 0
- Fold Change of progesterone ([4]; platform pLC, p-Value 1): 0
- Fold Change of riboflavin ([4]; platform pLC, p-Value 1): 0
- Fold Change of sugar-phosphate ([4]; platform pLC, p-Value 1): 0
- Fold Change of thiamine ([4]; platform pLC, p-Value 1): 0
- Fold Change of thymine ([4]; platform pLC, p-Value 1): 0
- Fold Change of tryptophan ([4]; platform pLC, p-Value 1): 0
- Fold Change of uric acid ([4]; platform pLC, p-Value 1): 0
- Fold Change of urocanic acid ([4]; platform pLC, p-Value 1): 0
- Fold Change of xanthosine(diH2O) ([4]; platform pLC, p-Value 1): 0
- Fold Change of zeatin ([4]; platform pLC, p-Value 1): 0
- Number of Reactions Having an Enzyme and at Least One Compound Perturbed [5]: 0

Reference: patent publication US20040018500A1, “Methods and systems for analyzing complex biological systems” (priority 2001, published 2004)
